The text below walks through data of ChEMBL document CHEMBL1909046, “DrugMatrix in vitro pharmacology data”.

Chain of Beta-1 adrenergic receptor (P08588 whole entry): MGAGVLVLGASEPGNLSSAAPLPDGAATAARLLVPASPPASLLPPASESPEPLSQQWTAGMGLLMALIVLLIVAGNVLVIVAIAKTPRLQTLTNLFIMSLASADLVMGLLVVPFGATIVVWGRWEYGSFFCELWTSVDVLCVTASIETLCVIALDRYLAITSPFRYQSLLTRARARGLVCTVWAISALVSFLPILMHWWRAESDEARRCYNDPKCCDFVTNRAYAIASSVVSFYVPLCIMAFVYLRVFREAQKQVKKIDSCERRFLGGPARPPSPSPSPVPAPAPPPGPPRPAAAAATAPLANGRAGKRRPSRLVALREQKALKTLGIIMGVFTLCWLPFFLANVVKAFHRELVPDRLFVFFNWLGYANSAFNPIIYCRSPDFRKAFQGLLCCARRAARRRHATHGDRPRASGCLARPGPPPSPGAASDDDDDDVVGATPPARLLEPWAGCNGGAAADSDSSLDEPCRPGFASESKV

The first test has as its target T1, C-X-C chemokine receptor type 1 (Homo sapiens, UniProt P25024). Further: in other assays of this panel Not Active means under 50% inhibition at 10 µM.
T1 sequence (P25024 whole entry): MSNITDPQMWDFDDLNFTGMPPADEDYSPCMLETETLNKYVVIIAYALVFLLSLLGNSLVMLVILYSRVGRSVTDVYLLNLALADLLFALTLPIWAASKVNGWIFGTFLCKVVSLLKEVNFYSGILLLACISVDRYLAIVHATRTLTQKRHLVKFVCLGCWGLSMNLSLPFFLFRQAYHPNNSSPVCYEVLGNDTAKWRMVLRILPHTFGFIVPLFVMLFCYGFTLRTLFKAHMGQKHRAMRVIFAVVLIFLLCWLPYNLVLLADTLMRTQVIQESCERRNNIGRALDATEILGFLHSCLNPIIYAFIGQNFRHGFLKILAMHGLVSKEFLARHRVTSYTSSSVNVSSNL
Test: not given
Details: not given
The term IC50 denotes the concentration that gives 50% inhibition. Turning to `CSc1ccc(/C=C2/C(C)=C(CC(=O)O)c3cc(F)ccc32)cc1` [SULINDAC SULFIDE], the IC50 result is on record as “Not Active”.
As to `Nc1nc2ccc(OC(F)(F)F)cc2s1` [RILUZOLE], the IC50 result is on record as “Not Active”.
Usually Ki stands for the dissociation constant of the complex between target and ligand, obtained from inhibition or displacement. As to SODIUM NITROPRUSSIDE, the IC50 entry is recorded as “Not Active” and the Ki entry is recorded as “Not Active”.
`Cc1noc(NS(=O)(=O)c2ccc(N)cc2)c1C` [SULFISOXAZOLE]: the IC50 entry is reported as “Not Active”.
On the same count and under the same terms, then `Cc1cccc(N(C)C(=S)Oc2ccc3ccccc3c2)c1` [TOLNAFTATE], with “Not Active”; and `Cc1oncc1C(=O)Nc1ccc(C(F)(F)F)cc1` [LEFLUNOMIDE], with “Not Active”.
Still for that read-out and setting: next, `CN1CCN(CCCN2c3ccccc3Sc3ccc(Cl)cc32)CC1` [PROCHLORPERAZINE]: “Not Active”; `CCOC(=O)N1CCC(=C2c3ccc(Cl)cc3CCc3cccnc32)CC1` [LORATADINE]: “Not Active”.

The target in the next test is T2, C-X-C chemokine receptor type 2 (Homo sapiens, UniProt P25025). Further: in other assays of this panel Not Active means under 50% inhibition at 10 µM.
T2 sequence (P25025 whole entry): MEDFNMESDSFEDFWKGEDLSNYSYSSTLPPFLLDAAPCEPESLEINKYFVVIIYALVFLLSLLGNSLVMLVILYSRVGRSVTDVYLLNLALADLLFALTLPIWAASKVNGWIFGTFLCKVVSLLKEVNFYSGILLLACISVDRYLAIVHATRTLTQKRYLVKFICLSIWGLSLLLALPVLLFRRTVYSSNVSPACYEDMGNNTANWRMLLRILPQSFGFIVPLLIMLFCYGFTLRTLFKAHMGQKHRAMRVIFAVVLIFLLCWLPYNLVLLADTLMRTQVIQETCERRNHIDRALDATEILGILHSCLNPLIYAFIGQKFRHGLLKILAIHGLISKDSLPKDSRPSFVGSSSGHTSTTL
Test: not given
Particulars: cho-k1. Format: cell membranes, Membrane.
For the compound `CSc1ccc(/C=C2/C(C)=C(CC(=O)O)c3cc(F)ccc32)cc1` [SULINDAC SULFIDE], the 50% inhibitory concentration (IC50) result was “Not Active”.
For `Nc1nc2ccc(OC(F)(F)F)cc2s1` [RILUZOLE], the IC50 entry was “Not Active”.
SODIUM NITROPRUSSIDE: the IC50 entry is on record as “Not Active” and the inhibition constant Ki result was “Not Active”.
As for `Cc1noc(NS(=O)(=O)c2ccc(N)cc2)c1C` [SULFISOXAZOLE], the IC50 entry was “Not Active”.
Same read-out and setting: next, `Cc1cccc(N(C)C(=S)Oc2ccc3ccccc3c2)c1` [TOLNAFTATE]: “Not Active”; `Cc1oncc1C(=O)Nc1ccc(C(F)(F)F)cc1` [LEFLUNOMIDE]: “Not Active”; `CN1CCN(CCCN2c3ccccc3Sc3ccc(Cl)cc32)CC1` [PROCHLORPERAZINE]: “Not Active”.
The same measure, in the same setting: then `CCOC(=O)N1CCC(=C2c3ccc(Cl)cc3CCc3cccnc32)CC1` [LORATADINE], with “Not Active”.

Another test addresses T3, Thromboxane-A synthase (Homo sapiens, UniProt P24557).
T3 sequence (P24557 whole entry): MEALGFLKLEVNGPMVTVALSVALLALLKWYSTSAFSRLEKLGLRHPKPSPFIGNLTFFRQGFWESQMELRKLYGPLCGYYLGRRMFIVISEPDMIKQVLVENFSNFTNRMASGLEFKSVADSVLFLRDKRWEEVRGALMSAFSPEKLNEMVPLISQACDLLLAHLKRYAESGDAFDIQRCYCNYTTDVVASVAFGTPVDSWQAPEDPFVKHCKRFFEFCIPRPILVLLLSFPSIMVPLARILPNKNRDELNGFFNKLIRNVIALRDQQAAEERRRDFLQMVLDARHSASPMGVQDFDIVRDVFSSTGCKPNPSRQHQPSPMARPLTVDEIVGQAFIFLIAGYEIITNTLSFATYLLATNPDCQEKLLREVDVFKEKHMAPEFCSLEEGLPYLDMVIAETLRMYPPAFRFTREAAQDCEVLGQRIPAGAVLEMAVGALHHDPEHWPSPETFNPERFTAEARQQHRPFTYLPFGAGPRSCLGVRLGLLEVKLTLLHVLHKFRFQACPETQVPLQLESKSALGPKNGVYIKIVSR
The test can be described thus: biochemical. The class given is tissue-based, Platelet. The following applies: platelet.
Turning to `CSc1ccc(/C=C2/C(C)=C(CC(=O)O)c3cc(F)ccc32)cc1` [SULINDAC SULFIDE], the IC50 result is “Not Active”.
For the compound `Nc1nc2ccc(OC(F)(F)F)cc2s1` [RILUZOLE], the IC50 entry was “Not Active”.
SODIUM NITROPRUSSIDE: the IC50 result is “Not Active” and the Ki entry was “Not Active”.
As to `Cc1noc(NS(=O)(=O)c2ccc(N)cc2)c1C` [SULFISOXAZOLE], the IC50 entry is given as “Not Active”.
On the same count and under the same terms, next, `Cc1cccc(N(C)C(=S)Oc2ccc3ccccc3c2)c1` [TOLNAFTATE]: “Not Active”; `Cc1oncc1C(=O)Nc1ccc(C(F)(F)F)cc1` [LEFLUNOMIDE]: “Not Active”; `CN1CCN(CCCN2c3ccccc3Sc3ccc(Cl)cc32)CC1` [PROCHLORPERAZINE]: “Not Active”.
Same read-out and setting: next, `CCOC(=O)N1CCC(=C2c3ccc(Cl)cc3CCc3cccnc32)CC1` [LORATADINE]: “Not Active”.

In the next test the target is T4, Type-2 angiotensin II receptor (Homo sapiens, UniProt P50052). Further: in other assays of this panel Not Active means under 50% inhibition at 10 µM.
T4 sequence (P50052 whole entry): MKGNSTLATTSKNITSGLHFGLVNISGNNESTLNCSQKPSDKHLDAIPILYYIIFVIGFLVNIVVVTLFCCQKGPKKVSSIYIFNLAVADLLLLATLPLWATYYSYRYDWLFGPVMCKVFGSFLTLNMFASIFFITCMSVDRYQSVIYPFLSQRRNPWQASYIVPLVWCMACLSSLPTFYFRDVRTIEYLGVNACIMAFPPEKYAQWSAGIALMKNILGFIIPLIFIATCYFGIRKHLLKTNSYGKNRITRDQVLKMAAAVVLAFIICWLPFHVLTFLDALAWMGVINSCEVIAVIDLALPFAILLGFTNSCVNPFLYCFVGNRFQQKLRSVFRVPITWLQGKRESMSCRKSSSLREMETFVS
Test: not given
Format: cell-based. Particulars: cho-k1.
With `CSc1ccc(/C=C2/C(C)=C(CC(=O)O)c3cc(F)ccc32)cc1` [SULINDAC SULFIDE], the IC50 entry is given as “Not Active”.
`Nc1nc2ccc(OC(F)(F)F)cc2s1` [RILUZOLE]: the IC50 entry is recorded as “Not Active”.
Turning to SODIUM NITROPRUSSIDE, the IC50 result was “Not Active” and the Ki result is given as “Not Active”.
As for `Cc1noc(NS(=O)(=O)c2ccc(N)cc2)c1C` [SULFISOXAZOLE], the IC50 result was “Not Active”.
Turning to `Cc1cccc(N(C)C(=S)Oc2ccc3ccccc3c2)c1` [TOLNAFTATE], the IC50 entry is given as “Not Active”.
The same measure, in the same setting: then `Cc1oncc1C(=O)Nc1ccc(C(F)(F)F)cc1` [LEFLUNOMIDE], with “Not Active”; and `CN1CCN(CCCN2c3ccccc3Sc3ccc(Cl)cc32)CC1` [PROCHLORPERAZINE], with “Not Active”; and `CCOC(=O)N1CCC(=C2c3ccc(Cl)cc3CCc3cccnc32)CC1` [LORATADINE], with “Not Active”.

Another test has as its target Beta-1 adrenergic receptor (Homo sapiens, UniProt P08588). The test can be described thus: DRUGMATRIX: Adrenergic beta1 radioligand binding (ligand: [125I] Cyanopindolol). Format: cell membranes, CHO-K1, Membrane. Particulars: cho-k1; Not Active = under 50% inhibition at 10 µM.
Consider `CSc1ccc(/C=C2/C(C)=C(CC(=O)O)c3cc(F)ccc32)cc1` [SULINDAC SULFIDE], for which the IC50 entry was “Not Active”.
Take `Nc1nc2ccc(OC(F)(F)F)cc2s1` [RILUZOLE]: the IC50 entry was “Not Active”.
On to SODIUM NITROPRUSSIDE, for which the IC50 entry is given as “Not Active” and the Ki entry is reported as “Not Active”.
`Cc1noc(NS(=O)(=O)c2ccc(N)cc2)c1C` [SULFISOXAZOLE]: the IC50 entry was “Not Active”.
The same measure, in the same setting: next, `Cc1cccc(N(C)C(=S)Oc2ccc3ccccc3c2)c1` [TOLNAFTATE]: “Not Active”.
On the same count and under the same terms, then `Cc1oncc1C(=O)Nc1ccc(C(F)(F)F)cc1` [LEFLUNOMIDE], with “Not Active”; and `CN1CCN(CCCN2c3ccccc3Sc3ccc(Cl)cc32)CC1` [PROCHLORPERAZINE], with “Not Active”.
On the same count and under the same terms, then `CCOC(=O)N1CCC(=C2c3ccc(Cl)cc3CCc3cccnc32)CC1` [LORATADINE], with “Not Active”.

For another test, the target named is 5-hydroxytryptamine receptor 1B (Rattus norvegicus, UniProt P28564). Further: in other assays of this panel Not Active means under 50% inhibition at 10 µM.
Chain of 5-hydroxytryptamine receptor 1B (P28564 whole entry): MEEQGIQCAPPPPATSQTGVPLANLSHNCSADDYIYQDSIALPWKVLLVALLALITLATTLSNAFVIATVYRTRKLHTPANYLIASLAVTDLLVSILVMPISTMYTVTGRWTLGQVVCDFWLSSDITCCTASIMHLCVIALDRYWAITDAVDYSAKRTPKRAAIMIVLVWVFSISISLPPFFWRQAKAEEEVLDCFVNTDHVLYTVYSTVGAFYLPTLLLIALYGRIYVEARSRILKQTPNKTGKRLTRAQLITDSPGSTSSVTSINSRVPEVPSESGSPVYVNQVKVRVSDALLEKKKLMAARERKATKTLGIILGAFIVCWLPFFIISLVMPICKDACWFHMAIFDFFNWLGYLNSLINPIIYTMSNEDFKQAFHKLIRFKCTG
Test: not given
Details: not given
The class given is cell membranes, Wistar, Cerebral cortex, Membrane.
In the case of `CSc1ccc(/C=C2/C(C)=C(CC(=O)O)c3cc(F)ccc32)cc1` [SULINDAC SULFIDE], the IC50 result was “Not Active”.
As to `Nc1nc2ccc(OC(F)(F)F)cc2s1` [RILUZOLE], the IC50 entry was “Not Active”.
For SODIUM NITROPRUSSIDE, the IC50 entry is listed as “Not Active” and the inhibition constant Ki result is given as “Not Active”.
`Cc1noc(NS(=O)(=O)c2ccc(N)cc2)c1C` [SULFISOXAZOLE]: the IC50 result is “Not Active”.
For the compound `Cc1cccc(N(C)C(=S)Oc2ccc3ccccc3c2)c1` [TOLNAFTATE], the IC50 entry was “Not Active”.
As for `Cc1oncc1C(=O)Nc1ccc(C(F)(F)F)cc1` [LEFLUNOMIDE], the IC50 result is “Not Active”.
On the same count and under the same terms, next, `CCOC(=O)N1CCC(=C2c3ccc(Cl)cc3CCc3cccnc32)CC1` [LORATADINE]: “Not Active”.

The same test, now with this note: read-out: IC50.
Consider `CN1CCN(CCCN2c3ccccc3Sc3ccc(Cl)cc32)CC1` [PROCHLORPERAZINE], for which the half-maximal inhibitory concentration (IC50) is 2650 nM.

Still in this test, the particulars now being: read-out: Ki.
`CN1CCN(CCCN2c3ccccc3Sc3ccc(Cl)cc32)CC1` [PROCHLORPERAZINE]: the Ki worked out at 1200 nM.
